The source of these data is patent publication US20050123477A1, “Benzothiazole derivatives for in vivo imaging of amloid plaques” (priority 2002, published 2005).

One series relates to CACO-2 cells. The experiment in a line: CACO-2 cell apparent permeability (Papp), BBB model. As to conditions: CACO-2 monolayers in Transwells, 30 minutes at 37° C., donor to acceptor. As to the method:
Culturing of CACO-2 cells and Determination of Apparent Permeability (Papp) Values:
The seeding of 12 mm Transwells was as follows for CACO-2. Flasks of confluent cultures were trypsinsed and cells were carefully resuspended, making sure there are no clumps or air bubbles. 1.5 ml of tissue culture medium was placed in the bottom (acceptor) chamber of the wells and 0.5 ml containing 2×10^5 cells in the Transwell (donor chamber) and placed in the incubator. The cells were routinely monitored for adequate trans epithelial electrical resistance (TEER) using an EndOhm Tissue resistance measurement chamber (WPI). The subsequent maintenance and feeding of the cells on the Transwells was as follows: when feeding the wells, the medium was removed from the acceptor chamber (basolateral side) and donor chamber (apical side) of the Transwells. The medium was aspirated off with a pipette connected to a vacuum pump, being careful not to touch the filter. 0.5 ml of growth medium was then placed into the donor chamber and 1.5 ml of growth medium was placed into the acceptor chamber.
When the TEER values of the CACO-2 cell monolayers in Transwells was around 500 Ωcm^2 (300-800 Ωcm^2 was considered acceptable) permeability experiments were performed in triplicate as follows. All culture media was removed and acceptor and donor chambers were rinsed twice with Eagles Balance Salt Solution (EBSS) (Gibco) at 37° C. 1.5 ml EBSS was added to the acceptor chamber and 0.5 ml EBSS containing radiolabelled compound was added to the donor chamber. Cultures in Transwells were then incubated for 30 minutes at 37° C. at 200 rpm using a Labnet Vortemp. After 30 minutes, 100 μl aliquot was taken from the donor chamber and 750 μl from the acceptor chamber. These aliquots were then counted for radioactivity. The remaining EBSS was removed from the acceptor and donor chambers and then the Transwell was thoroughly rinsed three times la with EBSS. Next, the Transwell membrane (and associated cells) was removed using a scalpel and the amount of radiolabel associated with it was determined.
Permeability of compounds were determined by calculating their Papp value: Papp=ΔQ/Δt.60.A.Co (cm/sec)
On the technique in general: Passage across Caco-2 layers is used to estimate intestinal permeability.

Another series can be described thus: LogP and delta LogP. Type of series: physicochemical.
Series [1] can be described thus: Brain Uptake Index (BUI) method. Type of series: in vivo. As to the method: BUI is calculated according to the following equation: [formula] BUI was performed on three animals from the same test solution for each experiment. Each compound was assayed in duplicate.
The nature of a further series: In situ brain perfusion. As to conditions: unidirectional brain influx constant, perfusion 2-30 minutes. Also on record: unit not given here. In kind it is in vivo.
Series [2] concerns the target T1, fibrillar Beta-Amyloid Protein (BAP 1-40) (Homo sapiens, UniProt P05067).
T1 construct: 25 μl BAP 1-40 (10 mg/ml, Biosource 03-138); purchased Biosource 03-138 (BAP 1-40); 03-243 (biotinylated BAP 1-40)
Put plainly: Amyloid binding on SPA beads. As to conditions: 180 minutes at room temperature, equimolar amounts, non-specific binding subtracted. How it is done:
The binding of Compound 1 (74 TBq/mmol) was determined compared to the ability of ^125I-beta amyloid protein 1-40 (^125I-BAP 1-40, Amersham Biosciences IM294)) to bind to amyloid 140 fibrils. Amyloid binding was essentially performed as follows.
Three fresh buffer stocks were prepared for experiments: Buffer 1, 50 mM HEPES/0.1 % Bovine Serum Albumin (BSA) pH 7.5; Buffer 2, 50 mM HEPES/0.1% BSA/400 μM ZnCl2 pH 7.5; Buffer 3, 50 mM HEPES/0.1% BSA/100 μM ZnCl2 pH 7.5.
Streptavidin coated scintillation proximity assay beads (SA-SPA beads, Amersham Biosciences) were used to immobilise fibrillar Beta-Amyloid Protein (BAP 1-40). Amyloid coated beads (SPA-BAP) were prepared by incubating 250 μl SA-SPA beads (100 mg/ml) with 250 μl Buffer 2, 425 μl Buffer 1, 50 μl biotinylated BAP 1-40 (0.5 mg/ml, Biosource 03-243), 25 μl BAP 1-40 (10 mg/ml, Biosource 03-138). Non-specific binding SPA beads (SPA-NSB) were prepared to assess the binding of compounds to SPA beads with no associated BAP 1-40 fibrils in the following incubation: 250 μl SA-SPA beads (100 mg/ml) with 250 μL Buffer 2,500 μl Buffer 1.
SPA-BAP and SPA-NSB incubations were left for 24 hours at room temperature and then spun 1.5 ml tubes (eppendorf, Merk, 306/0421/12) for 2 minutes at 1000×g. The supernatants were removed and the beads were washed twice by resuspending them in 1 ml Buffer 3 followed by centrifugation for 2 minutes at 1000×g. Finally, washed SPA-BAP and SPA-NSB beads were resuspended in 1 ml Buffer 3.
Amyloid binding of ^125I-BAP 1-40 and Compound 1 was performed in triplicate in 0.5 ml tubes (eppendorf, Merk, 306/0421/02) by adding 50 μl SPA-BAP beads to 25 μl Buffer 2 and 25 μl labelled compound (^125I-BAP 1-40 or Compound 1). Tubes were then incubated for 180 minutes at room temperature with shaking, followed by centrifugation for 2 minutes at 1000×g. The supernatants were removed and SPA-BAP pellet washed twice with 300 μl Buffer 3 containing 1% TWEEN-20 (Sigma, P7949). Non-specific binding for labelled compounds to the SPA beads was determined using incubations as described above but by substituting SPA-BAP beads with SPA-NSB beads. Radioactivity associated with the washed SPA bead pellets was then determined.
The affinity of labelled compounds for fibrillar BAP 1-40 was estimated by subtracting SPA-NSB associated counts from SPA-BAP associated counts. The binding of labelled compounds was then compared to ^125I-BAP binding, which was taken as being 100%.
In these experiments, ^125-BAP 1-40 or Compound 1 were added in equimolar amounts (between 1-5×10^−11 mmoles per incubation).

T1 sequence (P05067 672-711 limits assumed): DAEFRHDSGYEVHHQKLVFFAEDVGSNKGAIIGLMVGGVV
Experimental for In situ brain perfusion: For this reason an in situ brain perfusion technique was used.
The brain was perfused with a saline-based solution containing the test compound for 2, 5, 15, 20 and 30 minutes and uptake in the brain calculated as a percentage of concentration of test substance in the perfusate (R tissue=dpm per g brain/dpm per μl perfusate×100%).
Uptake is plotted against time and the slope of the graph represents the unidirectional brain influx constant, Kin. This reflects the rate of entry of a compound into the CNS.

As a reminder, the Papp is a coefficient for how fast a substance crosses the barrier. The term LogP denotes a log measure of how a compound divides between an organic and an aqueous phase. On to `Cc1cc(-c2nc3cc([125I])ccc3s2)ccc1N` [Compound 1, 5-[^125I]-iodo-2-(4′-amino-3′-methylphenyl)benzothiazole], for which the Papp in the series with CACO-2 cells amounted to 13.7 ×10⁻⁶ cm/s. In addition, in the series “LogP and delta LogP”, the LogP worked out at 1.75 and the ΔLogP was −0.38. In addition, in series [1] (carotid artery bolus, decapitated after 15 seconds, relative to 14C-Butanol), the “Mean BUI” value is reported as 43.6. Further, the “BBB penetration (from BUI)” value in series [1] (cut off low/medium 20%) is “medium to high BBB penetration”. The Kin in the series “In situ brain perfusion” was found to be 49.8. Further, in series [2], the “Amyloid binding (% of 125I-BAP 1-40)” value was found to be 27%.
